Data on five cell lines can be found in the supplement of paper PMC10307832.

Common to all, as to assay: relative viability (nuclei count vs DMSO), 5 days (fraction); higher = more cells survive
Compound in assay [1]: CN1CCN(c2ccc3nc(-c4c(N)c5c(F)cccc5[nH]c4=O)[nH]c3c2)CC1 [Dovitinib] + CC(=O)c1c(C)c2cnc(Nc3ccc(N4CCNCC4)cn3)nc2n(C2CCCC2)c1=O [Palbociclib] (partner 0.5 µM)
Put shortly: (§1)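 The day after seeding in 1536-well plates, lung cancer cell lines were treated by pin tool with a single drug, or with a fixed anchor-drug dose together with five library-drug doses (not always all listed) in √10 steps. After 5 days, a combined fix-and-stain solution (final 0.05% Triton X-100, 1% formaldehyde, 1 ug/ml Hoechst) was added. Nuclei counted on 4× images gave relative viability as treated counts over vehicle counts, reported as the median of duplicate plates.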

Compound in assay [2]: CN1CCN(c2ccc3nc(-c4c(N)c5c(F)cccc5[nH]c4=O)[nH]c3c2)CC1 [Dovitinib] + C[C@@H](Oc1cc(-c2cnn(C3CCNCC3)c2)cnc1N)c1c(Cl)ccc(F)c1Cl [Crizotinib] (partner 1 µM)
A digest of the protocol: as §1

Compound in assay [3]: CN1CCN(c2ccc3nc(-c4c(N)c5c(F)cccc5[nH]c4=O)[nH]c3c2)CC1 [Dovitinib] + NC(=O)Nc1cc(-c2cccc(F)c2)sc1C(=O)N[C@H]1CCCNC1 [AZD7762] (partner 0.2 µM)
A digest of the protocol:
as §1

Compound in assay [4]: CN1CCN(c2ccc3nc(-c4c(N)c5c(F)cccc5[nH]c4=O)[nH]c3c2)CC1 [Dovitinib] + O=C(CCCCCCC(=O)Nc1ccccc1)NO [Vorinostat] (partner 1 µM)
Put shortly: as §1

For the cell line NCI-H2405, the relative viability in assay [1] (first compound 0.02 µM) is 0.511; in assay [1] (first compound 0.06325 µM) it was 0.516; in assay [1] (first compound 0.2 µM), 0.546; in assay [1] (first compound 0.6325 µM) it was 0.504; in assay [1] (first compound 2 µM), 0.556; in assay [2] (first compound 0.02 µM), 0.87. For the same cell line, the relative viability in assay [2] (first compound 0.06325 µM) worked out at 0.762; in assay [2] (first compound 0.2 µM), 0.862; in assay [2] (first compound 0.6325 µM) it was 0.773; in assay [2] (first compound 2 µM), 0.935; in assay [3] (first compound 0.02 µM), 0.693; in assay [3] (first compound 0.06325 µM), 0.781. Also, the relative viability amounted to 0.736 in assay [3] (first compound 0.2 µM); 0.696 in assay [3] (first compound 0.6325 µM); 0.78 in assay [3] (first compound 2 µM); 0.99 in assay [4] (first compound 0.02 µM); 0.961 in assay [4] (first compound 0.06325 µM); 1.07 in assay [4] (first compound 0.2 µM). Moreover, the relative viability was determined as 1.06 in assay [4] (first compound 0.6325 µM) and 1.17 in assay [4] (first compound 2 µM).

Take NCI-H3122: the relative viability in assay [1] (first compound 0.02 µM) was 0.226; in assay [1] (first compound 0.06325 µM), 0.173; in assay [1] (first compound 0.2 µM) it was 0.184; in assay [1] (first compound 0.6325 µM) it was 0.181; in assay [1] (first compound 2 µM) it was 0.21; in assay [2] (first compound 0.02 µM), 0.294. Further, the relative viability in assay [2] (first compound 0.06325 µM) is 0.27; in assay [2] (first compound 0.2 µM), 0.287; in assay [2] (first compound 0.6325 µM) it was 0.284; in assay [2] (first compound 2 µM) it was 0.263; in assay [3] (first compound 0.02 µM) it was 0.926; in assay [3] (first compound 0.06325 µM), 1.02. For the same cell line, the relative viability turned out to be 0.995 in assay [3] (first compound 0.2 µM); 0.925 in assay [3] (first compound 0.6325 µM); 0.93 in assay [3] (first compound 2 µM); 0.823 in assay [4] (first compound 0.02 µM); 0.91 in assay [4] (first compound 0.06325 µM); 1.07 in assay [4] (first compound 0.2 µM). Moreover, the relative viability in assay [4] (first compound 0.6325 µM) was 0.951; in assay [4] (first compound 2 µM), 1.08.

In the case of PC-3 [JPC-3], the relative viability in assay [1] (first compound 0.02 µM) was 0.518; in assay [1] (first compound 0.06325 µM), 0.58; in assay [1] (first compound 0.2 µM) it was 0.55; in assay [1] (first compound 0.6325 µM), 0.555; in assay [1] (first compound 2 µM) it was 0.517; in assay [2] (first compound 0.02 µM), 0.928. The relative viability in assay [2] (first compound 0.06325 µM) was determined as 0.923; in assay [2] (first compound 0.2 µM), 0.963; in assay [2] (first compound 0.6325 µM) it was 1.01; in assay [2] (first compound 2 µM) it was 0.984; in assay [3] (first compound 0.02 µM), 0.84; in assay [3] (first compound 0.06325 µM) it was 0.855. In addition, the relative viability in assay [3] (first compound 0.2 µM) came to 0.921; in assay [3] (first compound 0.6325 µM) it was 0.866; in assay [3] (first compound 2 µM), 0.827; in assay [4] (first compound 0.02 µM), 0.888; in assay [4] (first compound 0.06325 µM), 0.77; in assay [4] (first compound 0.2 µM), 0.948. In addition, the relative viability in assay [4] (first compound 0.6325 µM) stood at 0.945; in assay [4] (first compound 2 µM) it was 0.914.

As to PC-14, the relative viability worked out at 0.461 in assay [1] (first compound 0.02 µM); 0.622 in assay [1] (first compound 0.06325 µM); 0.572 in assay [1] (first compound 0.2 µM); 0.467 in assay [1] (first compound 0.6325 µM); 0.537 in assay [1] (first compound 2 µM); 0.815 in assay [2] (first compound 0.02 µM). In addition, the relative viability is 0.906 in assay [2] (first compound 0.06325 µM); 0.865 in assay [2] (first compound 0.2 µM); 0.862 in assay [2] (first compound 0.6325 µM); 0.893 in assay [2] (first compound 2 µM); 0.309 in assay [3] (first compound 0.02 µM); 0.343 in assay [3] (first compound 0.06325 µM). Further, the relative viability in assay [3] (first compound 0.2 µM) was 0.385; in assay [3] (first compound 0.6325 µM), 0.351; in assay [3] (first compound 2 µM), 0.357; in assay [4] (first compound 0.02 µM), 0.771; in assay [4] (first compound 0.06325 µM), 0.938; in assay [4] (first compound 0.2 µM) it was 0.778. Also, the relative viability in assay [4] (first compound 0.6325 µM) was found to be 0.694; in assay [4] (first compound 2 µM) it was 0.757.

Consider RERF-LC-KJ, for which the relative viability in assay [1] (first compound 0.02 µM) worked out at 1.09; in assay [1] (first compound 0.06325 µM), 1; in assay [1] (first compound 0.2 µM), 1.08; in assay [1] (first compound 0.6325 µM), 1.1; in assay [1] (first compound 2 µM), 1.01; in assay [2] (first compound 0.02 µM), 0.796. The relative viability in assay [2] (first compound 0.06325 µM) came out at 0.817; in assay [2] (first compound 0.2 µM) it was 0.86; in assay [2] (first compound 0.6325 µM), 0.815; in assay [2] (first compound 2 µM), 0.861; in assay [3] (first compound 0.02 µM) it was 1.05; in assay [3] (first compound 0.06325 µM), 0.916. In addition, the relative viability in assay [3] (first compound 0.2 µM) amounted to 1.03; in assay [3] (first compound 0.6325 µM) it was 1.02; in assay [3] (first compound 2 µM), 0.868; in assay [4] (first compound 0.02 µM), 0.654; in assay [4] (first compound 0.06325 µM), 0.681; in assay [4] (first compound 0.2 µM), 0.761. Also, the results for the relative viability in assay [4] (first compound 0.6325 µM) and in assay [4] (first compound 2 µM) were 0.667 and 0.685, respectively.
